# Experimental data as given in PubChem BioAssay AID180 (DTP/NCI, 2004).
# Several values for one entry are separate records, joined by “and”; a condition that tells them apart may be missing. Identical values can stand only once.
# System: BDF1 mice, Adenocarcinoma 755 s.c., tumor weight T/C
# Assay: NCI In Vivo Anticancer Drug Screen. Data for tumor model Adenocarcinoma 755 (subcutaneous) in B6D2F1 (BDF1) mice
# Settings: endpoint: mean tumor weight, higher = larger tumour
# In short: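 Compound activity was tested in mice carrying transplanted tumors. Survival or tumor size was measured, and each value is the treated-group measurement divided by that of the vehicle-treated control group (T/C).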
# [1] = dose: 12.5 mg/kg/injection, schedule: Q01DX011 (ip), vehicle: carboxymethylcellulose (CMC)
# [2] = dose: 15.0 mg/kg/injection, schedule: Q01DX011 (ip), vehicle: methylcellulose (MC)
# [3] = dose: 31.0 mg/kg/injection, schedule: Q01DX011 (ip), vehicle: methylcellulose (MC)
# [4] = dose: 62.0 mg/kg/injection, schedule: Q01DX011 (ip), vehicle: methylcellulose (MC)
# [5] = dose: 125.0 mg/kg/injection, schedule: Q01DX011 (ip), vehicle: methylcellulose (MC)
# [6] = dose: 250.0 mg/kg/injection, schedule: Q01DX011 (ip), vehicle: methylcellulose (MC)
# [7] = dose: 50.0 mg/kg/injection, schedule: Q01DX011 (ip), vehicle: carboxymethylcellulose (CMC)
# [8] = dose: 30.0 mg/kg/injection, schedule: Q01DX011 (ip), vehicle: carboxymethylcellulose (CMC)
# [9] = dose: 25.0 mg/kg/injection, schedule: Q01DX011 (ip), vehicle: carboxymethylcellulose (CMC)
compound,measurement,setting,value
CSc1ncnc2c1ncn2CCCl,T/C,"dose: 1.5 mg/kg/injection, schedule: Q01DX011 (ip), vehicle: carboxymethylcellulose (CMC)",92 % of control
same,T/C,"dose: 3.0 mg/kg/injection, schedule: Q01DX011 (ip), vehicle: carboxymethylcellulose (CMC)",80 % of control
same,T/C,"dose: 6.0 mg/kg/injection, schedule: Q01DX011 (ip), vehicle: carboxymethylcellulose (CMC)",31 % of control
same,T/C,"dose: 6.2 mg/kg/injection, schedule: Q01DX011 (ip), vehicle: carboxymethylcellulose (CMC)",34 % of control
same,T/C,[1],4 % of control
CCCn1cnc2c(SCc3ccccn3)nc(N)nc21,T/C,"dose: 3.6 mg/kg/injection, schedule: Q01DX011 (ip), vehicle: methylcellulose (MC)",12 % of control
same,T/C,"dose: 7.25 mg/kg/injection, schedule: Q01DX011 (ip), vehicle: methylcellulose (MC)",4 % of control
same,T/C,"dose: 15.5 mg/kg/injection, schedule: Q01DX011 (ip), vehicle: methylcellulose (MC)",1 % of control
CS(=O)(=O)OCC1OC(O)CC1O (centres undefined),T/C,"dose: 25.0 mg/kg/injection, schedule: Q01DX011 (ip), vehicle: saline",113 % of control
same,T/C,"dose: 75.0 mg/kg/injection, schedule: Q01DX011 (ip), vehicle: saline",153 % of control
CC1CN(Cc2ccco2)C(=S)N(c2ccccc2)C1=O (centres undefined),T/C,[2],81 % of control
same,T/C,[3],84 % of control
same,T/C,[4],99 % of control
same,T/C,[5],84 % of control
same,T/C,[6],98 % of control
CCCCN(C)N=Nc1ccc(C(N)=O)cc1,T/C,"dose: 16.0 mg/kg/injection, schedule: Q01DX011 (ip), vehicle: carboxymethylcellulose (CMC)",14 % of control
same,T/C,"dose: 31.0 mg/kg/injection, schedule: Q01DX011 (ip), vehicle: carboxymethylcellulose (CMC)",27 % of control
same,T/C,[7],25 % of control
same,T/C,"dose: 75.0 mg/kg/injection, schedule: Q01DX011 (ip), vehicle: carboxymethylcellulose (CMC)",14 % of control
Nc1nc(Cl)cc(Nc2cccc(Cl)c2)n1,T/C,[2],99 % of control
same,T/C,[3],104 % of control
same,T/C,[4],103 % of control
same,T/C,[5],94 % of control
same,T/C,[6],68 % of control
CSc1nc(N)nc2c1n(C)c[n+]2C,T/C,[8],97 % of control
same,T/C,"dose: 60.0 mg/kg/injection, schedule: Q01DX011 (ip), vehicle: carboxymethylcellulose (CMC)",99 % of control
same,T/C,"dose: 120.0 mg/kg/injection, schedule: Q01DX011 (ip), vehicle: carboxymethylcellulose (CMC)",66 % of control
same,T/C,"dose: 240.0 mg/kg/injection, schedule: Q01DX011 (ip), vehicle: carboxymethylcellulose (CMC)",89 % of control
Cc1nnc2ncnc(N)c2n1,T/C,[8],46 % of control
CCCCn1cnc2c([N+](C)(C)C)ncnc21,T/C,"dose: 3.75 mg/kg/injection, schedule: Q01DX011 (ip), vehicle: carboxymethylcellulose (CMC)",66 % of control
same,T/C,"dose: 15.0 mg/kg/injection, schedule: Q01DX011 (ip), vehicle: carboxymethylcellulose (CMC)",33 % of control and 38 % of control
C=C(C)[C@H]1Cc2c(ccc3c2O[C@@H]2COc4cc(OC)c(OC)cc4[C@@H]2C3=O)O1,T/C,"dose: 0.5 mg/kg/injection, schedule: Q01DX011 (ip), vehicle: water",93 % of control
same,T/C,"dose: 0.75 mg/kg/injection, schedule: Q01DX011 (ip), vehicle: water",96 % of control
same,T/C,"dose: 1.0 mg/kg/injection, schedule: Q01DX011 (ip), vehicle: water",74 % of control
same,T/C,"dose: 2.0 mg/kg/injection, schedule: Q01DX011 (ip), vehicle: water",88 % of control
COC(=O)C1(N)CCCC1,T/C,[1],63 % of control
same,T/C,[9],35 % of control
same,T/C,[7],11 % of control
same,T/C,"dose: 100.0 mg/kg/injection, schedule: Q01DX011 (ip), vehicle: carboxymethylcellulose (CMC)",5 % of control
C/C(=N\NC(=O)c1ccncc1)c1ccc(F)cc1,T/C,"dose: 30.0 mg/kg/injection, schedule: Q01DX011 (ip), vehicle: methylcellulose (MC)",95 % of control
CCC1=C(c2cc(Cl)c3ccccc3c2OCC(=O)O)OC(CC)(C(=O)c2cc(Cl)c3ccccc3c2OCC(=O)O)CC1 (centres undefined),T/C,"dose: 30.0 mg/kg/injection, schedule: Q01DX011 (ip), vehicle: alkali diluted with saline",152 % of control
O=S(=O)(NCc1ccccn1)c1ncnc2nc[nH]c12,T/C,"dose: 12.0 mg/kg/injection, schedule: Q01DX011 (ip), vehicle: carboxymethylcellulose (CMC)",119 % of control
same,T/C,[9],101 % of control
same,T/C,[7],99 % of control
S=c1nc[nH]c2c1ncn2C1CCCCC1,T/C,"dose: 62.0 mg/kg/injection, schedule: Q01DX011 (ip), vehicle: carboxymethylcellulose (CMC)",117 % of control
same,T/C,"dose: 125.0 mg/kg/injection, schedule: Q01DX011 (ip), vehicle: carboxymethylcellulose (CMC)",118 % of control
same,T/C,"dose: 188.0 mg/kg/injection, schedule: Q01DX011 (oral), vehicle: carboxymethylcellulose (CMC)",154 % of control
same,T/C,"dose: 250.0 mg/kg/injection, schedule: Q01DX011 (ip), vehicle: carboxymethylcellulose (CMC)",66 % of control
same,T/C,"dose: 376.0 mg/kg/injection, schedule: Q01DX011 (oral), vehicle: carboxymethylcellulose (CMC)",104 % of control
same,T/C,"dose: 500.0 mg/kg/injection, schedule: Q01DX011 (ip), vehicle: carboxymethylcellulose (CMC)",62 % of control
same,T/C,"dose: 752.0 mg/kg/injection, schedule: Q01DX011 (oral), vehicle: carboxymethylcellulose (CMC)",87 % of control
O=C(Nc1ccc(C2=NCCCN2)cc1)c1ccc(NC(=O)c2ccc(C3=NCCCN3)cc2)cc1,T/C,"dose: 2.0 mg/kg/injection, schedule: Q01DX011 (ip), vehicle: carboxymethylcellulose (CMC)",89 % of control
same,T/C,"dose: 4.0 mg/kg/injection, schedule: Q01DX011 (ip), vehicle: carboxymethylcellulose (CMC)",63 % of control
same,T/C,"dose: 8.0 mg/kg/injection, schedule: Q01DX011 (ip), vehicle: carboxymethylcellulose (CMC)",53 % of control
CC(=O)OC1(C)CC(C)C(=O)C(C(O)CC2CC(=O)NC(=O)C2)C1 (centres undefined),T/C,"dose: 0.2 mg/kg/injection, schedule: Q01DX006 (ip), vehicle: other",38 % of control
same,T/C,"dose: 0.5 mg/kg/injection, schedule: Q01DX006 (ip), vehicle: other",17 % of control
same,T/C,"dose: 0.5 mg/kg/injection, schedule: Q01DX006 (ip), vehicle: water",72 % of control
same,T/C,"dose: 2.0 mg/kg/injection, schedule: Q01DX006 (ip), vehicle: water",66 % of control
same,T/C,"dose: 5.0 mg/kg/injection, schedule: Q01DX006 (ip), vehicle: water",114 % of control
same,T/C,"dose: 10.0 mg/kg/injection, schedule: Q01DX006 (ip), vehicle: water",71 % of control
same,T/C,"dose: 1:500.0 dilution, schedule: Q01DX006 (ip), vehicle: water",84 % of control
same,T/C,"dose: 1:1000.0 dilution, schedule: Q01DX006 (ip), vehicle: water",115 % of control
same,T/C,"dose: 1:2000.0 dilution, schedule: Q01DX006 (ip), vehicle: water",105 % of control and 83 % of control
same,T/C,"dose: 1:20000.0 dilution, schedule: Q01DX006 (ip), vehicle: water",39 % of control
same,T/C,"dose: 1:100000.0 dilution, schedule: Q01DX006 (ip), vehicle: water",101 % of control
CCCCNc1ncnc2c1cnn2C1CCCCO1 (centres undefined),T/C,"dose: 3.12 mg/kg/injection, schedule: Q01DX011 (ip), vehicle: methylcellulose (MC)",39 % of control
same,T/C,"dose: 6.25 mg/kg/injection, schedule: Q01DX011 (ip), vehicle: methylcellulose (MC)",44 % of control
same,T/C,"dose: 12.5 mg/kg/injection, schedule: Q01DX011 (ip), vehicle: methylcellulose (MC)",20 % of control
same,T/C,"dose: 25.0 mg/kg/injection, schedule: Q01DX011 (ip), vehicle: methylcellulose (MC)",12 % of control
O=C(CCBr)N1CCCN(C(=O)CCBr)CC1,T/C,"dose: 28.0 mg/kg/injection, schedule: Q01DX011 (ip), vehicle: carboxymethylcellulose (CMC)",85 % of control
same,T/C,"dose: 57.0 mg/kg/injection, schedule: Q01DX011 (ip), vehicle: carboxymethylcellulose (CMC)",60 % of control
same,T/C,"dose: 57.0 mg/kg/injection, schedule: Q01DX011 (ip), vehicle: methylcellulose (MC)",58 % of control and 78 % of control
same,T/C,"dose: 113.0 mg/kg/injection, schedule: Q01DX011 (ip), vehicle: carboxymethylcellulose (CMC)",16 % of control
same,T/C,"dose: 113.0 mg/kg/injection, schedule: Q01DX011 (ip), vehicle: methylcellulose (MC)",35 % of control
